PubChem BioAssay (NCI)
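1) Cells in 96-well plates. 2) Compound, 48 h, 5 concentrations. 3) Linear interpolation between surrounding doses. 4) Unreached endpoint = highest concentration. GI50 = concentration required for 50% inhibition of growth. TGI denotes the concentration required for complete inhibition of growth.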

What was measured:
Experiment in all cases: growth of human tumour cells (NCI), 48 h
A549 NSCLC = tested on: A549 NSCLC
HOP-62 NSCLC = tested on: HOP-62 NSCLC
OVCAR-5 ovarian = tested on: OVCAR-5 ovarian
SK-MEL-2 melanoma = tested on: SK-MEL-2 melanoma
HCC-2998 colon = tested on: HCC-2998 colon
ACHN renal = tested on: ACHN renal
CAKI-1 renal = tested on: CAKI-1 renal
NCI-H522 lung = tested on: NCI-H522 lung
KM12 colon = tested on: KM12 colon
BT-549 breast = tested on: BT-549 breast
UACC-62 melanoma = tested on: UACC-62 melanoma
NCI/ADR-RES ovarian = tested on: NCI/ADR-RES ovarian
MDA-MB-468 breast = tested on: MDA-MB-468 breast
OVCAR-4 ovarian = tested on: OVCAR-4 ovarian
MDA-MB-435 = tested on: MDA-MB-435
TK-10 renal = tested on: TK-10 renal
SNB-75 CNS = tested on: SNB-75 CNS
NCI-H460 lung = tested on: NCI-H460 lung
UO-31 renal = tested on: UO-31 renal
RPMI-8226 leukemia = tested on: RPMI-8226 leukemia
K-562 leukemia = tested on: K-562 leukemia
SW-620 colon = tested on: SW-620 colon
SR leukemia = tested on: SR leukemia
MOLT-4 leukemia = tested on: MOLT-4 leukemia
LOX IMVI melanoma = tested on: LOX IMVI melanoma
SF-295 CNS = tested on: SF-295 CNS
OVCAR-3 ovarian = tested on: OVCAR-3 ovarian
M14 melanoma = tested on: M14 melanoma

COc1cc(OC)c(S(=O)(=O)N(CCCl)CCCl)cc1C(=O)/C=C/c1cc(OC)c(OC)c(OC)c1
GI50 (A549 NSCLC): 3110 nM | TGI (A549 NSCLC): > 100000 nM | GI50 (HOP-62 NSCLC): 3770 nM | TGI (HOP-62 NSCLC): 22800 nM | GI50 (OVCAR-5 ovarian): 2510 nM | TGI (OVCAR-5 ovarian): 6800 nM | GI50 (SK-MEL-2 melanoma): 2060 nM | TGI (SK-MEL-2 melanoma): 4650 nM | GI50 (HCC-2998 colon): 1970 nM | TGI (HCC-2998 colon): 3540 nM | GI50 (ACHN renal): 2080 nM | TGI (ACHN renal): 6160 nM | GI50 (CAKI-1 renal): 2720 nM | TGI (CAKI-1 renal): > 100000 nM | GI50 (NCI-H522 lung): 1660 nM | TGI (NCI-H522 lung): 3780 nM | GI50 (KM12 colon): 1930 nM | TGI (KM12 colon): 4260 nM | GI50 (BT-549 breast): 1370 nM | TGI (BT-549 breast): 2920 nM | GI50 (UACC-62 melanoma): 2100 nM | TGI (UACC-62 melanoma): 4940 nM | GI50 (NCI/ADR-RES ovarian): 2580 nM | TGI (NCI/ADR-RES ovarian): > 100000 nM | GI50 (MDA-MB-468 breast): 1520 nM | TGI (MDA-MB-468 breast): 3660 nM | GI50 (OVCAR-4 ovarian): 2780 nM | TGI (OVCAR-4 ovarian): > 100000 nM | GI50 (MDA-MB-435): 2530 nM | TGI (MDA-MB-435): 7510 nM | GI50 (TK-10 renal): 6090 nM | TGI (TK-10 renal): 75000 nM | GI50 (SNB-75 CNS): 2560 nM | TGI (SNB-75 CNS): 8530 nM | GI50 (NCI-H460 lung): 1950 nM | TGI (NCI-H460 lung): 5080 nM | GI50 (UO-31 renal): 1540 nM | TGI (UO-31 renal): 2920 nM | GI50 (RPMI-8226 leukemia): 2520 nM | TGI (RPMI-8226 leukemia): > 100000 nM | GI50 (K-562 leukemia): 1300 nM | TGI (K-562 leukemia): > 100000 nM | GI50 (SW-620 colon): 2690 nM | TGI (SW-620 colon): 25100 nM | GI50 (SR leukemia): 993 nM | TGI (SR leukemia): > 100000 nM | GI50 (MOLT-4 leukemia): 2040 nM | TGI (MOLT-4 leukemia): > 100000 nM | GI50 (LOX IMVI melanoma): 1440 nM | TGI (LOX IMVI melanoma): 2890 nM | GI50 (SF-295 CNS): 2860 nM | TGI (SF-295 CNS): 35400 nM | GI50 (OVCAR-3 ovarian): 2120 nM | TGI (OVCAR-3 ovarian): 6620 nM | GI50 (M14 melanoma): 2090 nM | TGI (M14 melanoma): 5450 nM
